Measured values reported in US20260355330A1, “CELL PENETRATING PEPTIDES AND USES THEREOF” (VECTIOPEP OÜ, priority 2022, published 2026).
Positions of bridges follow the written chain, without caps; N, C: chain ends. Non-standard residues stand in square brackets, D forms with d. Residues, ends and D or L forms follow the SMILES beside them. Chains are numbered I, II in the order given. *: point of attachment. Stearoyl = CCCCCCCCCCCCCCCCCC(=O)*; Dab = NCC[C@H](N)C(=O)O

Assays:
[1] = test system: BALB/c mice; experiment: Live animal imaging 1-48 hours post administration of NF424/mRNA or NF424/pDNA complexes; assay type: in vivo
Procedure: FIG. 4: Live animal imaging 1-48 hours post administration of NF424/mRNA or NF424/pDNA complexes. Reporter gene product levels were evaluated with full body imager at 1 h, 6 h, 12 h, 24 h, and 48 h post-injection.
(§1) The transfection complexes (CPP/mRNA) were formed using 10 μg of mRNA mixed with each peptide at indicated charge ratios (CRs) in MQ water in a final volume of 100 μl. CRs were calculated theoretically and account for both the positive charges of the peptide and negative charges of the nucleic acid. The transfection complexes (CPP/mRNA and CPP/pDNA) were formed using 50 μg of mRNA mixed with each peptide at indicated charge ratios (CRs) in MQ water in a final volume of 168 μl. The complexes were incubated for 30 minutes at room temperature and then mixed with equal volume of 10% glucose (resulting in a final solution of 5% glucose in a total volume of 200 μl for 10 μg dose groups and 336 μl for 50 μg dose groups) and immediately injected intravenously via the tail vein.
100 μl of luciferin (PerkinElmer), at a concentration of 15 mg/ml, was intraperitoneally injected into the mice. After 10 min, the mice were imaged using the In Vivo Imaging System (IVIS Lumina II, PerkinElmer).
Live animal imaging was used to track the timepoints of mRNA and pDNA transfection with NFs (FIG. 4). The CPP used was NF424, complexes were formed in parallel with mRNA or pDNA and injected through the tail vein of BALB/c mice. The reporter gene expression levels were evaluated with full body imager at 1 h, 6 h, 12 h, 24 h and 48 h post-injection.

[2] = test system: spleen of BALB/c mice; experiment: In vivo delivery of mRNA with CPPs - reporter levels in the spleen; settings: for Reporter levels in the spleen (RLU): mRNA, tail vein injection, spleens harvested 16 hours after single injection, whole tissue homogenate
Procedure: FIG. 5: Delivery of mRNA with CPPs in vivo—reporter levels in the spleen. Spleens were harvested post mortem 16 hours post-injection. The reporter levels (RLU) were evaluated from the whole tissue homogenate.
as §1
(§2) The reporter gene (luciferase) expression levels were evaluated from the tissue homogenate post mortem 16-24 h after single injection.
CPPs and mRNA complexes were injected through the tail vein of BALB/c mice, spleens were harvested 16 hours after the single injection and reporter signal was measured from the whole tissue homogenate (FIG. 5 and Table 5).

[3] = test system: liver, spleen, lung, kidney, heart and thymus of Balb/c mice; experiment: Biodistribution of reporter levels post-transfection of mRNA or pDNA with CPPs in vivo (tissue homogenate)
Procedure: FIG. 3: Biodistribution of reporter levels post-transfection of mRNA or pDNA with NFs or PFs CPPs in vivo. Reporter gene product levels were evaluated from the whole tissue homogenates collected post mortem. Results are shown as the fold change to mRNA or pDNA treated mice.
as §1, §2
In order to determine to which organs in vivo mRNAs may be delivered to with NickFect or PepFect CPPs, mRNA complexes with NF55, NF71 and PF14 were formed and injected through the tail vein of Balb/c mice (FIG. 3A). The organs were harvested 24 hours after the single injection and reporter signal was measured from whole tissue homogenates. The biodistribution of reporter levels was measured in liver, spleen, lung, kidney, heart and thymus.
In order to compare the biodistribution profiles between harvested organs when using either mRNA or pDNA as cargo, NF424 was used to transfect these 2 types of nucleic acids in vivo (FIG. 3B and Table 4).

[4] = test system: CHO-K1 cells; experiment: Delivery of reporter mRNA with CPPs in cell culture (luciferase luminescence 24 h post-transfection); assay type: cell-based; settings: for Average RLU/mg (reporter levels post-transfection of mRNA): firefly luciferase mRNA, 0.1 μg per well, charge ratio 3:1, serum containing media, 24 h, RLU normalised to total protein in lysate; for Efficiency of mRNA transfection/delivery: FIG. 1 / Table 2, cell culture; for Delivery of mRNA compared to NF55: comparator NF55
Procedure: FIG. 1: Delivery of reporter mRNA with CPPs in cell culture—evaluation of reporter levels post-transfection (relative light units normalised to total protein in the cell lysate (RLU/mg)). Naked mRNA treated cells were used as controls and Lipofectamine3000 (LF3000) was used to compare the transfection efficacy with a liposome-based transfection reagent.
Adherent CHO-K1 cells were grown in Dulbecco's Modified Eagle's Medium (DMEM), which were supplemented with 0.1 mM non-essential amino acids, 1.0 mM sodium pyruvate, 100 U/ml penicillin, and […]. For complete media, 10% (final) fetal bovine serum (FBS) was added. Cells were maintained in a humidified incubator at 37 °C, 5% CO2. Cell viability and confluence was assessed daily and the cell density was reduced regularly. For cell counting, we used the CytoSMART cell counter accompanied by 0.4% trypan blue staining prior measurement. The multi-well plates with cell cultures used for experiments were incubated in a humidified incubator at 37 °C, 5% CO2.
For in vitro experiments 0.1 μg of nucleic acid (plasmid DNA (pDNA) or mRNA) was used per 96-well plate well. For CPP/NA complex formation, the diluted NA was mixed with CPP in water. Complexes were formed based on the theoretical charge ratio (CR) of positive charges from the peptide in excess to the negative charges from nucleic acid backbone, at charge ratio 3:1 with peptide in excess. Commercial reagent Lipofectamine3000 (LF3000) was used according to the manufacturer's recommendations for the transfection of adherent cells.
For reporter luminescence (expressed from firefly luciferase encoding mRNA or plasmid pDNA) assessment in adherent cell culture, 10,000 cells per 96-well plate well were seeded in 100 μl of media one day prior to transfection. Shortly before transfection, cell media was replaced with 100 μl of serum containing (10% foetal bovine serum) DMEM media. CPPs and mRNA or pDNA were mixed at a charge ratio 3:1 in ultrapure water and incubated at room temperature before addition to cells in serum containing media. Cells were transfected with 0.1 μg of mLuc per well.
24 hours post-transfection, the media was aspirated, cells were washed with 1×PBS, and 30 μl of lysis buffer (0.1% Triton X100 in 1×PBS) was added. Cells were incubated with lysis buffer for 20 min. to lyse the cells. From the lysate, 20 μl was transferred to a black frame white well 96-well plate for luminescence measurement after addition of substrate luciferin (PerkinElmer) in buffer. The luminescence signal was detected with GloMax® 96 microplate luminometer equipped with GloMax® 1.9.2 software (Promega). RLU values were converted to RLU/mg by normalization to total protein in cell lysate, reflecting total number of cells. For protein detection, a Pierce™ BCA Protein Assay Kit was used.
The present inventors have previously reported CPPs developed from the NickFect (NF) and PepFect (PF) families for plasmid (pDNA), siRNA and miRNA delivery (see, e.g. WO 2020/144317, WO 2010/039088 and WO 2012/113846). With the emergence of mRNA-based therapeutics, it was decided to investigate peptides for their ability to deliver mRNA. It was assumed that CPPs that are efficient for siRNA and miRNA delivery, e.g. histidine containing CPPs (Porosk et. al. (2019)), may be good candidates for the delivery of mRNA. Therefore, CPPs from each main family (NF55-, PF14- and NF70-derived CPPs) were tested for mRNA delivery/transfection. Naked mRNA treated and untreated cells were used as control groups. LF3000 was used to compare the transfection efficacy of liposome-based transfection reagents with the CPPs (FIG. 1).

[5] = NF424 delivery of mRNA, fold change to mRNA treated mice
[6] = NF424 delivery of pDNA, fold change to pDNA treated mice

Row | Structure (SMILES) | Time at which reporter signal was detected in the spleens ([1]; NF424/mRNA complexes, 10 μg mRNA, tail vein) [h] | Time at which reporter signal was visible in the lungs ([1]; NF424/pDNA complexes, 50 μg pDNA, tail vein) [h] | Detected signal, mRNA vs pDNA ([1]; in words, 10 μg mRNA vs 50 μg pDNA) | Main organ of mRNA delivery (live imaging) ([1]; in words, mRNA cargo) | Main organ of pDNA delivery (live imaging) ([1]; in words, pDNA cargo) | Efficacy of mRNA delivery into the spleen in vivo ([2]; in words, FIG. 5 / Table 5) | Delivery of mRNA in vivo compared to NF54 and/or NF55 ([2]; in words, comparator NF54 and/or NF55) | Reporter levels in the spleen (RLU) [2] | Fold/mRNA, Liver [3, 5] [Fold] | Fold/mRNA, Lung [3, 5] [Fold] | Fold/mRNA, Spleen [3, 5] | Fold/pDNA, Liver [3, 6] [Fold] | Fold/pDNA, Lung [3, 6] [Fold] | Fold/pDNA, Spleen [3, 6] [Fold] | Organ distribution of mRNA delivery ([3]; in words, mRNA cargo) | Organ distribution of pDNA delivery ([3]; in words, pDNA cargo) | Average RLU/mg (reporter levels post-transfection of mRNA) [4] | Efficiency of mRNA transfection/delivery ([4]; in words) | Delivery of mRNA compared to NF54 ([4]; in words, comparator NF54) | Delivery of mRNA compared to NF55 ([4]; in words)
1 | CCCCCCCCCCCCCCCCCC(=O)N[C@@H](C)C(=O)NCC(=O)N[C@@H](Cc1ccc(O)cc1)C(=O)N[C@@H](CC(C)C)C(=O)N[C@@H](CC(C)C)C(=O)NCC(=O)NCC[C@H](N)C(=O)N[C@@H](CC(C)C)C(=O)N[C@@H](CCCCN)C(=O)N[C@@H](C)C(=O)N[C@@H](CC(C)C)C(=O)N[C@@H](C)C(=O)N[C@@H](C)C(=O)N[C@@H](CC(C)C)C(=O)N[C@@H](C)C(=O)N[C@@H](CCCCN)C(=O)N[C@@H](C)C(=O)N[C@H](C(=O)N[C@@H](CC(C)C)C(N)=O)[C@@H](C)CC [NF424] (I: H-[Dab]LKALAALAKAIL-NH2 / II: Stearoyl-AGYLLG; amide I:1-II:C) | ≤ 1 | 6 | the detected signal was much higher from mRNA | delivers mRNA mostly to the spleen | pDNA to the lungs | highest reporter levels after mRNA delivery into the spleen in vivo | significantly improved delivery of mRNA in vivo over both NF54 and NF55 | 427 566 RLU | 9 | 98 | 8 330 Fold | 2 | 11 | 5 | the highest expression levels were found in the spleen of treated mice | the main expression was found in lungs and liver | 2 590 000 000 RLU/mg | the most efficient | good improvement in delivery of cargo such as mRNA over NF54 | significantly improved delivery of mRNA over NF55
2 | CCCCCCCCCCCCCCCCCC(=O)N[C@@H](C)C(=O)NCC(=O)N[C@@H](Cc1ccc(O)cc1)C(=O)N[C@@H](CC(C)C)C(=O)N[C@@H](CC(C)C)C(=O)NCC(=O)NCC[C@H](N)C(=O)N[C@H](C(=O)N[C@@H](CC(N)=O)C(=O)N[C@@H](CC(C)C)C(=O)N[C@@H](CCCCN)C(=O)N[C@@H](C)C(=O)N[C@@H](CC(C)C)C(=O)N[C@@H](C)C(=O)N[C@@H](C)C(=O)N[C@@H](CC(C)C)C(=O)N[C@@H](C)C(=O)N[C@@H](CCCCN)C(=O)N[C@@H](C)C(=O)N[C@H](C(=O)N[C@@H](CC(C)C)C(N)=O)[C@@H](C)CC)[C@@H](C)CC [NF553] | – | – | – | – | – | – | – | 57 989 RLU | – | – | – | – | – | – | – | – | 1 750 000 000 RLU/mg | the most efficient | – | improved delivery of mRNA over NF55
